This passage reports logD results from the SangsterLogP compilation.

This data set in a line: from Ebert, E.; Eckhardt, W.; Jakel, K.; Moser, P.; Sozzi, D.; Vogel, C. (1989). Quantitative structure-activity relationships of fungicidally active triazoles: analogs and stereoisomers of propiconazole …. The settings on record: pH 7.0.

The structures appear in SMILES notation.

`CCC1COC(Cn2cncn2)(c2ccc(NC(=O)c3ccc([N+](=O)[O-])cc3)cc2)O1` (stereo not given): the pH-dependent lipophilicity (logD) was 2.17.
To `CC1COC(Cn2cncn2)(c2ccc(-n3cncn3)cc2Cl)O1` (stereo not given) belongs 1.28; to `CCC1COC(Cn2cncn2)(c2ccc(-c3ccccc3)cc2)O1` (stereo not given), 3.71; to `CCC1COC(Cn2cncn2)(c2ccc(NC(=O)NC)cc2)O1` (stereo not given), 0.62.
To `CCC1COC(Cn2cncn2)(c2ccc(NC(=O)C(F)(F)F)cc2)O1` (stereo not given) belongs 1.08; to `CCC1COC(Cn2cncn2)(c2ccc(Cl)cc2Cl)O1` (stereo not given), 3.03.
As to `CCC1COC(Cn2cncn2)(c2ccc([N+](=O)[O-])cc2)O1` (stereo not given), the logD was 1.52.
To `COCCOCC1COC(Cn2cncn2)(c2ccc(Cl)cc2Cl)O1` (stereo not given) belongs 2.03; to `Cc1ccc(C2(Cn3cncn3)OCCO2)cc1`, 1.55.
To `OCC1COC(Cn2cncn2)(c2ccc(Cl)cc2Cl)O1` (stereo not given) belongs 1.76.
